According to PubChem BioAssay (NCI):
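Exposure lasted 48 hours, with cells grown in 96-well plates and compounds tested at five concentrations. TGI marks complete inhibition of growth.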

How the values were obtained:
Assay in all cases: growth of human tumour cells (NCI), 48 h
[1] = system: 786-0 renal
[2] = system: A498 renal
[3] = system: A549 NSCLC
[4] = system: CAKI-1 renal
[5] = system: CCRF-CEM leukemia
[6] = system: COLO 205 colon
[7] = system: DLD-1 colon
[8] = system: DMS 114 small cell lung
[9] = system: DMS 273 small cell lung
[10] = system: EKVX NSCLC
[11] = system: HCC-2998 colon
[12] = system: HCT-116 colon
[13] = system: HCT-15 colon
[14] = system: HL-60(TB) leukemia
[15] = system: HOP-18 NSCLC
[16] = system: HOP-62 NSCLC
[17] = system: HOP-92 NSCLC
[18] = system: HT29 colon
[19] = system: IGROV1 ovarian
[20] = system: K-562 leukemia
[21] = system: KM12 colon
[22] = system: KM20L2 colon
[23] = system: LOX IMVI melanoma
[24] = system: M14 melanoma
[25] = system: M19-MEL melanoma
[26] = system: MALME-3M melanoma
[27] = system: MOLT-4 leukemia
[28] = system: NCI-H226 lung
[29] = system: NCI-H23 lung
[30] = system: NCI-H460 lung
[31] = system: NCI-H522 lung
[32] = system: OVCAR-3 ovarian
[33] = system: OVCAR-4 ovarian
[34] = system: OVCAR-5 ovarian
[35] = system: OVCAR-8 ovarian
[36] = system: RPMI-8226 leukemia
[37] = system: RXF 393 renal
[38] = system: SF-268 CNS
[39] = system: SF-295 CNS
[40] = system: SF-539 CNS
[41] = system: SK-MEL-5 melanoma
[42] = system: SK-OV-3 ovarian
[43] = system: SN12C renal
[44] = system: SNB-19 CNS
[45] = system: SNB-75 CNS
[46] = system: SNB-78 CNS
[47] = system: SR leukemia
[48] = system: SW-620 colon
[49] = system: TK-10 renal
[50] = system: U251 CNS
[51] = system: UACC-257 melanoma
[52] = system: UACC-62 melanoma
[53] = system: UO-31 renal

Question: Which TGI [1] does the source give for `Nc1cccc2c1-c1c(cccc1[N+](=O)[O-])C2=O` here?
Answer: Its TGI is > 100 µM.

Question: And the TGI [2]?
Answer: The TGI was > 100 µM.

Question: And the TGI [3]?
Answer: The TGI was > 100 µM.

Question: And the TGI [4]?
Answer: Its TGI is > 100 µM.

Question: What about the TGI [5] of the same compound?
Answer: The TGI was > 100 µM.

Question: And the TGI [6]?
Answer: The TGI was > 100 µM.

Question: And the TGI [7]?
Answer: The TGI was > 100 µM.

Question: What about the TGI [8] of the same compound?
Answer: Its TGI is > 100 µM.

Question: And the TGI [9]?
Answer: Its TGI is > 100 µM.

Question: And the TGI [10]?
Answer: Its TGI is > 100 µM.

Question: What about the TGI [11] of the same compound?
Answer: Its TGI is > 100 µM.

Question: And the TGI [12]?
Answer: Its TGI is > 100 µM.

Question: And the TGI [13]?
Answer: Its TGI is > 100 µM.

Question: What about the TGI [14] of the same compound?
Answer: The TGI was > 100 µM.

Question: What about the TGI [15] of the same compound?
Answer: Its TGI is > 100 µM.

Question: And the TGI [16]?
Answer: The TGI was > 100 µM.

Question: And the TGI [17]?
Answer: Its TGI is > 100 µM.

Question: What about the TGI [18] of the same compound?
Answer: Its TGI is > 100 µM.

Question: And the TGI [19]?
Answer: Its TGI is > 100 µM.

Question: What about the TGI [20] of the same compound?
Answer: Its TGI is > 100 µM.

Question: What about the TGI [21] of the same compound?
Answer: Its TGI is > 100 µM.

Question: And the TGI [22]?
Answer: The TGI was > 100 µM.

Question: What about the TGI [23] of the same compound?
Answer: The TGI was > 100 µM.

Question: And the TGI [24]?
Answer: Its TGI is > 100 µM.

Question: What about the TGI [25] of the same compound?
Answer: Its TGI is > 100 µM.

Question: What about the TGI [26] of the same compound?
Answer: Its TGI is > 100 µM.

Question: What about the TGI [27] of the same compound?
Answer: Its TGI is > 100 µM.

Question: And the TGI [28]?
Answer: Its TGI is > 100 µM.

Question: And the TGI [29]?
Answer: The TGI was > 100 µM.

Question: And the TGI [30]?
Answer: Its TGI is > 100 µM.

Question: And the TGI [31]?
Answer: The TGI was > 100 µM.

Question: What about the TGI [32] of the same compound?
Answer: The TGI was > 100 µM.

Question: And the TGI [33]?
Answer: The TGI was > 100 µM.

Question: And the TGI [34]?
Answer: Its TGI is > 100 µM.

Question: And the TGI [35]?
Answer: The TGI was > 100 µM.

Question: What about the TGI [36] of the same compound?
Answer: Its TGI is > 100 µM.

Question: What about the TGI [37] of the same compound?
Answer: Its TGI is > 100 µM.

Question: What about the TGI [38] of the same compound?
Answer: The TGI was > 100 µM.

Question: What about the TGI [39] of the same compound?
Answer: Its TGI is > 100 µM.

Question: What about the TGI [40] of the same compound?
Answer: The TGI was > 100 µM.

Question: What about the TGI [41] of the same compound?
Answer: Its TGI is > 100 µM.

Question: And the TGI [42]?
Answer: The TGI was > 100 µM.

Question: And the TGI [43]?
Answer: The TGI was > 100 µM.

Question: And the TGI [44]?
Answer: The TGI was > 100 µM.

Question: And the TGI [45]?
Answer: Its TGI is > 100 µM.

Question: What about the TGI [46] of the same compound?
Answer: Its TGI is > 100 µM.

Question: What about the TGI [47] of the same compound?
Answer: The TGI was > 100 µM.

Question: What about the TGI [48] of the same compound?
Answer: Its TGI is > 100 µM.

Question: And the TGI [49]?
Answer: Its TGI is > 100 µM.

Question: What about the TGI [50] of the same compound?
Answer: Its TGI is > 100 µM.

Question: What about the TGI [51] of the same compound?
Answer: The TGI was > 100 µM.

Question: And the TGI [52]?
Answer: The TGI was > 100 µM.

Question: And the TGI [53]?
Answer: Its TGI is 0.469 µM.
